Reference: patent US20250387419A1, “PARP INHIBITOR-RESISTANT PATIENT TREATED WITH TH-302” (ASCENTAWITS PHARMACEUTICALS, LTD., priority 2021, published 2025)

Key:
[1] = tested on: BRCA-mutated Capan-1 cell line; experiment: In vitro cell proliferation inhibition (CTG); assay type: cell-based, human; settings: for IC50: Homo sapiens, CAPAN-1, Capan-1, 3 h treatment, 72 h
From the text: (§1) The applicant specially studied in vitro cell proliferation inhibition of Capan-1 and BxPc-3 cell lines by the hypoxia-activated anti-cancer prodrugs TH-302 and tirapazamine under normoxia and hypoxia. The Capan-1 cell line was a BRCA-mutated cell line, and the BxPc-3 cell line was a BRCA wild-type (i.e., non-BRCA-mutated) cell line. This experiment was intended to verify the difference of the hypoxia-activated anti-cancer prodrugs, TH-302 and tirapazamine, in sensitivity to BRCA mutations.
(§2) • 1) Capan-1/BxPc-3 cell suspensions were added to two types of 24-well plates, 495 μL each well. Density of the cells was 6×10^4 per well. 24-well plates with glass inserts were used in hypoxic tests, and ordinary plastic 24-well plates were used in normoxic tests. • 2) The cells were incubated overnight in an incubator at 37° C. in 5% CO2. • 3) Compound Processing
(§3) A hypoxia workstation was tuned to create a hypoxic environment (O2<0.01%), and an oxygen indicator was used to confirm the hypoxia in the workstation.
(§4) 24 hours after cell seeding, the 24-well plates with glass inserts were transferred into the hypoxia workstation.
(§5) The 24-well plates were placed on vortex shakers, uncovered and shaken to allow air exchange for 5 minutes.
(§6) To each well in a monotherapy group, a 100× test compound solution was added.
(§7) 24 hours after cell seeding, 5 μL of the 100× test compound solution was added to each well. Three replicate wells were set up for each test group.

[2] = tested on: BRCA wild-type BxPc-3 cell line; experiment: In vitro cell proliferation inhibition (CTG); assay type: cell-based; settings: for IC50: Homo sapiens, BXPC-3, BxPc-3, 3 h treatment, 72 h
From the text: as §1, §2, §3, §4, §5, §6, §7

Nc1n[n+]([O-])c2ccccc2[n+]1[O-] [tirapazamine, reference compound]
Ratio (21% O2/0.01% O2) ([1]; Capan-1): >68.82 | IC50 ([1]; 21% O2): > 2000 µM | IC50 ([1]; <0.01% O2): 29.1 µM | Ratio (21% O2/0.01% O2) ([2]; BxPc-3): >60.19 | IC50 ([2]; 21% O2): > 2000 µM | IC50 ([2]; <0.01% O2): 33.2 µM
